Laboratory results published in PubChem BioAssay (NCI).
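Following 48 hours of exposure in 96-well plates, responses at five concentrations were used to interpolate endpoints linearly. TGI denotes the concentration required for complete inhibition of growth.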

How the values were obtained:
Experiment in all cases: DTP human tumour cell line panel, 48 h
[1] = tested on: XF 498 CNS
[2] = tested on: KM20L2 colon
[3] = tested on: RXF-631 renal
[4] = tested on: HOP-18 NSCLC

| Compound | TGI [1] | TGI [2] | TGI [3] | TGI [4] |
| --- | --- | --- | --- | --- |
| COc1cc(/C=C2/C(=O)N(C(=O)c3ccccc3O)N=C2C)ccc1O | 79.6 µM | > 100 µM | – | – |
| NC(=O)c1ncn(C2OC(CO)C(O)C2O)c1NC(=S)NC(=O)c1ccccc1 (centres undefined) | – | > 100 µM | – | – |
| O=C(O)C(CS)N=Cc1nc(-c2ccccc2)oc1O (centres undefined) | – | > 100 µM | – | – |
| Cc1ccc(N2C(=O)/C(=C3\Sc4c(nc(C)n(C)c4=O)N3c3ccccc3)SC2=S)cc1 | > 100 µM | > 100 µM | – | – |
| O=C1CN(c2ccccc2)C(=O)C1C(=O)Nc1ccc(Cl)c(Cl)c1 (centres undefined) | – | 16.8 µM | 14.3 µM | – |
| CCc1nc2c([nH]1)C(=O)c1ccccc1C2=O | 67.1 µM | – | – | – |
| O=C(CCl)Nc1ccc(C(=O)N/N=C/c2ccc(Cl)cc2)cc1 | 3 µM | 27.4 µM | – | – |
| OCCN(CCO)c1ncnc2c1sc(=S)n2-c1ccccc1 | > 100 µM | > 100 µM | – | > 100 µM |
